The source of these data is PubChem BioAssay AID330 (DTP/NCI, 2004).

Where “and” joins values, the source holds several entries; their conditions need not be identical. Equal entries are not always repeated. Inconclusive results and toxic doses are left out.

In the experiment the test system is P388 leukemia ip, CD2F1 mice, survival T/C. Briefly: NCI In Vivo Anticancer Drug Screen. Data for tumor model P388 Leukemia (intraperitoneal) in CD2F1 (CDF1) mice. To be noted: endpoint: median survival time, higher = longer survival. A digest of the protocol:
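Mice carrying the transplanted tumor received test compound or vehicle. Survival was recorded in each group, and the value is the treated-group measurement divided by that of the vehicle-treated control group.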

The mark [1] stands for this setting: dose: 60.0 mg/kg/injection, schedule: Q01DX005 (ip), vehicle: saline with Tween-80.
Where [2] appears, read: dose: 120.0 mg/kg/injection, schedule: Q01DX005 (ip), vehicle: saline with Tween-80.
The mark [3] stands for this setting: dose: 240.0 mg/kg/injection, schedule: Q01DX005 (ip), vehicle: saline with Tween-80.
Where [4] appears, read: dose: 100.0 mg/kg/injection, schedule: Q04DX003 (ip), vehicle: saline.
[5] abbreviates: dose: 50.0 mg/kg/injection, schedule: Q01DX005 (ip), vehicle: saline with Tween-80.
Where [6] appears, read: dose: 100.0 mg/kg/injection, schedule: Q01DX005 (ip), vehicle: saline with Tween-80.
Where [7] appears, read: dose: 200.0 mg/kg/injection, schedule: Q01DX005 (ip), vehicle: saline with Tween-80.
Setting [8] is: dose: 50.0 mg/kg/injection, schedule: Q01DX005 (ip), vehicle: Klucel (hydroxypropylcellulose) (HPC).
[9] abbreviates: dose: 100.0 mg/kg/injection, schedule: Q01DX005 (ip), vehicle: Klucel (hydroxypropylcellulose) (HPC).
[10] abbreviates: dose: 50.0 mg/kg/injection, schedule: Q01DX005 (ip), vehicle: saline.

For the compound `O=[N+]([O-])CC(O)C(Cl)(Cl)Cl` (stereo not given), the T/C reads like this: (dose: 50.0 mg/kg/injection, schedule: Q01DX001 (ip), vehicle: saline) 107 % of control; (dose: 100.0 mg/kg/injection, schedule: Q01DX001 (ip), vehicle: saline) 107 % of control; (dose: 200.0 mg/kg/injection, schedule: Q01DX001 (ip), vehicle: saline) 107 % of control.

Turning to `CO[C@H]1/C=C/O[C@@]2(C)Oc3c(C)c(O)c4c(O)c(c(/C=N/N5C(C)CN(Cc6ccccc6)CC5C)c(O)c4c3C2=O)NC(=O)/C(C)=C\C=C\[C@H](C)[C@H](O)[C@@H](C)[C@@H](O)[C@@H](C)[C@H](OC(C)=O)[C@@H]1C` (stereo not given in full), the T/C is, setting by setting: (dose: 100.0 mg/kg/injection, schedule: Q01DX009 (ip), vehicle: saline sonified) 90 % of control; (dose: 200.0 mg/kg/injection, schedule: Q01DX009 (ip), vehicle: saline sonified) 95 % of control.

On to `O=C1CCC(C2(O)c3ccccc3-c3ccccc32)C(=O)N1` (stereo not given), for which the T/C by setting is: under setting [1], 95 % of control; under setting [2], 96 % of control; under setting [3], 95 % of control.

As for `C[n+]1c2ccccc2c(Nc2ccc(NS(=O)(=O)CCCCN=C(N)N)cc2)c2ccc(N)cc21`, the T/C reads like this: (dose: 0.75 mg/kg/injection, schedule: Q01DX005 (ip), vehicle: Klucel (hydroxypropylcellulose) (HPC)) 113 % of control; (dose: 1.5 mg/kg/injection, schedule: Q01DX005 (ip), vehicle: Klucel (hydroxypropylcellulose) (HPC)) 122 % of control; (dose: 3.0 mg/kg/injection, schedule: Q01DX005 (ip), vehicle: Klucel (hydroxypropylcellulose) (HPC)) 151 % of control.

As to `CCCCCCCCCCCC(=O)OCCS(=O)(=O)CCOC(=O)CCCCCCCCCCC`, the T/C is 104 % of control (dose: 100.0 mg/kg/injection, schedule: Q04DX003 (ip), vehicle: Klucel (hydroxypropylcellulose) (HPC)); 103 % of control (dose: 200.0 mg/kg/injection, schedule: Q04DX003 (ip), vehicle: Klucel (hydroxypropylcellulose) (HPC)); 99 % of control (dose: 400.0 mg/kg/injection, schedule: Q04DX003 (ip), vehicle: Klucel (hydroxypropylcellulose) (HPC)).

With `COC(=O)C1(N)CCCC1`, the T/C was 90 % of control under setting [4]; 113 % of control (dose: 200.0 mg/kg/injection, schedule: Q04DX003 (ip), vehicle: saline); 109 % of control (dose: 400.0 mg/kg/injection, schedule: Q04DX003 (ip), vehicle: saline).

Regarding `CN1Cc2c(cc(CN3CCCCC3)n2C)C(c2ccc(Br)cc2)C1` (stereo not given), the T/C (dose: 15.0 mg/kg/injection, schedule: Q01DX005 (ip), vehicle: saline with Tween-80) is 100 % of control; the T/C (dose: 30.0 mg/kg/injection, schedule: Q01DX005 (ip), vehicle: saline with Tween-80) was 100 % of control; the T/C under setting [1] is 101 % of control.

As for `O=C(O)c1cccc(C(=O)O)c1I`, the T/C was 103 % of control (dose: 100.0 mg/kg/injection, schedule: Q01DX001 (ip), vehicle: other); 96 % of control (dose: 200.0 mg/kg/injection, schedule: Q01DX001 (ip), vehicle: other); 89 % of control (dose: 400.0 mg/kg/injection, schedule: Q01DX001 (ip), vehicle: other).

For `CCOC(=O)/C(Nc1ccc(C(=O)OCC)cc1)=C1\COc2nc(N)[nH]c(=O)c2N1`, the T/C is 93 % of control under setting [5], 91 % of control under setting [6] and 107 % of control under setting [7].

For `O=C(CBr)NCC1OC(n2cnc3c(=O)[nH]cnc32)C(O)C1O` (stereo not given), the T/C is 99 % of control (dose: 25.0 mg/kg/injection, schedule: Q01DX005 (ip), vehicle: Klucel (hydroxypropylcellulose) (HPC)); 96 % of control under setting [8]; 99 % of control under setting [9].

Consider `Cc1ccc(S(=O)(=O)N2CCC(N)=N2)cc1`, for which the T/C by setting is: under setting [8], 93 % of control; under setting [9], 98 % of control; (dose: 200.0 mg/kg/injection, schedule: Q01DX005 (ip), vehicle: Klucel (hydroxypropylcellulose) (HPC)) 90 % of control.

For the compound `CN(C)CCC[Si]1(C)c2ccccc2CCc2ccccc21`, the T/C by setting is: (dose: 25.0 mg/kg/injection, schedule: Q04DX003 (ip), vehicle: saline) 104 % of control; (dose: 50.0 mg/kg/injection, schedule: Q04DX003 (ip), vehicle: saline) 105 % of control; under setting [4], 109 % of control.

Take `CC(C)=CCC/C(C)=C/COc1ccc(/C=C2/C(=O)N(O)[C@@H](C)C(=O)N2O)cc1`: the T/C was 123 % of control and 97 % of control (dose: 6.25 mg/kg/injection, schedule: Q01DX009 (ip), vehicle: saline); 99 % of control (dose: 12.5 mg/kg/injection, schedule: Q01DX009 (ip), vehicle: saline); 108 % of control (dose: 25.0 mg/kg/injection, schedule: Q01DX009 (ip), vehicle: saline).

`Fc1ccc(OCCC(Cn2ccnc2)c2ccc(Cl)cc2Cl)cc1` (stereo not given): the T/C was 106 % of control (dose: 12.5 mg/kg/injection, schedule: Q01DX009 (ip), vehicle: saline with Tween-80); 106 % of control (dose: 25.0 mg/kg/injection, schedule: Q01DX009 (ip), vehicle: saline with Tween-80); 88 % of control and 94 % of control (dose: 50.0 mg/kg/injection, schedule: Q01DX009 (ip), vehicle: saline with Tween-80).

On to `O=C(c1ccccc1)N1CCCSC1=S`, for which the T/C runs as follows: under setting [1], 101 % of control; under setting [2], 105 % of control; under setting [3], 104 % of control.

`CCCOC(=O)c1ccccc1OP(=O)(N(C)C)N(C)C`: the T/C is, setting by setting: under setting [10], 93 % of control; (dose: 100.0 mg/kg/injection, schedule: Q01DX005 (ip), vehicle: saline) 98 % of control; (dose: 200.0 mg/kg/injection, schedule: Q01DX005 (ip), vehicle: saline) 108 % of control.

Consider `O=C(c1ccc(OCC(O)CN2CCN(c3ccccc3)CC2)cc1)c1cc2ccccc2c2ccccc12` (stereo not given), for which the T/C runs as follows: (dose: 100.0 mg/kg/injection, schedule: Q04DX003 (ip), vehicle: alcohol) 106 % of control; (dose: 100.0 mg/kg/injection, schedule: Q04DX003 (ip), vehicle: other) 109 % of control; (dose: 200.0 mg/kg/injection, schedule: Q04DX003 (ip), vehicle: alcohol) 120 % of control; (dose: 200.0 mg/kg/injection, schedule: Q04DX003 (ip), vehicle: other) 105 % of control.

`Cc1ccccc1NP1(=O)OCCCN1Cc1ccccc1Cl` (stereo not given): the T/C runs as follows: under setting [5], 99 % of control; under setting [6], 93 % of control; under setting [7], 93 % of control.

As for `O=C(O)c1cc(-c2ccccc2Cl)nc2cc3ccccc3cc12`, the T/C (dose: 50.0 mg/kg/injection, schedule: Q01DX009 (ip), vehicle: Klucel (hydroxypropylcellulose) (HPC)) is 111 % of control; the T/C (dose: 100.0 mg/kg/injection, schedule: Q01DX009 (ip), vehicle: Klucel (hydroxypropylcellulose) (HPC)) is 101 % of control; the T/C (dose: 200.0 mg/kg/injection, schedule: Q01DX009 (ip), vehicle: Klucel (hydroxypropylcellulose) (HPC)) is 101 % of control.

In the case of `COC(=O)C1CCCN1C(=O)c1ccccc1` (stereo not given), the T/C under setting [5] was 114 % of control, the T/C under setting [6] is 93 % of control and the T/C under setting [7] is 100 % of control.

With `CCC[CH2][Sn]1([CH2]CCC)[O]c2ccccc2[O]1`, the T/C is 103 % of control (dose: 0.39 mg/kg/injection, schedule: Q01DX005 (ip), vehicle: saline with Tween-80); 106 % of control (dose: 0.78 mg/kg/injection, schedule: Q01DX005 (ip), vehicle: saline with Tween-80); 109 % of control and 124 % of control (dose: 1.56 mg/kg/injection, schedule: Q01DX005 (ip), vehicle: saline with Tween-80); 100 % of control (dose: 3.12 mg/kg/injection, schedule: Q01DX005 (ip), vehicle: Klucel (hydroxypropylcellulose) (HPC)); 123 % of control (dose: 3.12 mg/kg/injection, schedule: Q01DX005 (ip), vehicle: saline with Tween-80); 105 % of control (dose: 6.25 mg/kg/injection, schedule: Q01DX005 (ip), vehicle: Klucel (hydroxypropylcellulose) (HPC)). In addition, the T/C (dose: 12.5 mg/kg/injection, schedule: Q01DX005 (ip), vehicle: Klucel (hydroxypropylcellulose) (HPC)) is 107 % of control.

For the compound `COc1c(OC2OC(CO)C(O)C(O)C2O)cc2c(c1OC)-c1ccc(OC)c(=O)cc1C(NC(C)=O)CC2` (stereo not given), the T/C was 108 % of control (dose: 12.5 mg/kg/injection, schedule: Q01DX005 (ip), vehicle: saline); 106 % of control (dose: 25.0 mg/kg/injection, schedule: Q01DX005 (ip), vehicle: saline); 117 % of control and 121 % of control under setting [10].
